The values that follow come from patent US5231093A, “Carbamate derivatives of 4-amino-3-isoxazolidinones, 3-amino-1-hydroxypyrrolidin-2-ones and 1-amino-1-cyclopropanecarboxylic acid analogs” (priority 1992, dated 1993).

The target in one test is T1, acetylcholinesterase (Rattus norvegicus, UniProt P37136).
T1 construct: corpora striata dissected free, weighed and homogenized in 19 volumes; from tissue; host or cells: corpus striatum of male Wistar rats, whole homogenate in 0.05M phosphate buffer pH 7.2
T1 sequence (P37136 32-614): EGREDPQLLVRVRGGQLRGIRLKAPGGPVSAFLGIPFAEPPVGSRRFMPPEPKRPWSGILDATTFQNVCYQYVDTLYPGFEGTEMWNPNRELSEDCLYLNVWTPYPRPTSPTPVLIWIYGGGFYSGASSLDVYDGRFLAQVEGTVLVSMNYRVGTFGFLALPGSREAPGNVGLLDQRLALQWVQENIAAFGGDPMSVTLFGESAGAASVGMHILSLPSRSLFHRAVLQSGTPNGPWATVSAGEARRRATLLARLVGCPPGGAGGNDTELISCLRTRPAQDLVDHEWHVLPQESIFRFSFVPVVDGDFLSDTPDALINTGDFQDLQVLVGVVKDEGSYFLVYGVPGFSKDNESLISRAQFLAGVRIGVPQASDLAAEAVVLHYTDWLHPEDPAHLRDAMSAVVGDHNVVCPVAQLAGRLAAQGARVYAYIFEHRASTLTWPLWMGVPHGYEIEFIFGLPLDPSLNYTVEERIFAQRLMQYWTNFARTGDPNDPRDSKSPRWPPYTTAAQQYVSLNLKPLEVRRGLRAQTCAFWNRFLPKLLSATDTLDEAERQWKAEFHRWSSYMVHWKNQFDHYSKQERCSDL
The test can be described thus: In Vitro Inhibition of Acetylcholinesterase Activity in Rat Striatum. Format: biochemical. An excerpt: Cholinesterases are found throughout the body, both in the brain and in serum. However, only brain acetylcholinesterase (AChE) distribution is correlated with central cholinergic innervation.
The method described below was used in this invention for assaying cholinesterase activity. This is a modification of the method of Ellman et al., Biochem. Pharmacol. 7, 88 (1961).
1. 0.05M Phosphate buffer, pH 7.2
(c) add (a) to (b) until pH reaches 7.2
4. […] Drugs are serially diluted (1:10) such that the final concentration (in cuvette) is 10^-4 M and screened for activity. If active, IC50 values are determined from the inhibitory activity of subsequent concentrations.
Male Wistar rats are decapitated, brains rapidly removed, corpora striata dissected free, weighed and homogenized in 19 volumes (approximately 7 mg protein/ml) of 0.05M phosphate buffer, pH 7.2 using a Potter-Elvehjem homogenizer. A 25 microliter aliquot of the homogenate is added to 1.0 milliter vehicle or various concentrations of the test drug and preincubated for 10 minutes at 37° C.
Enzyme activity is measured with the Beckman DU-50 spectrophotometer. This method can be used for IC50 determinations and for measuring kinetic constants.
Reagents are added to the blank and sample cuvettes as follows:
Blank values are determined for each run to control for non-enzymatic hydrolysis of substrate and these values are automatically subtracted by the kindata program available on kinetics soft-pac module. This program also calculates the rate of absorbance change for each cuvette.
Substrate concentration is 10 mM diluted 1:2 in assay yielding final concentration of 5 mM. DTNB concentration is 0.5 mM yielding 0.25 mM final concentration. [formula] IC50 values are calculated from log-probit analysis

Test [1] deals with Scopolamine Induced Memory Deficit. Type of test: in vivo, mice. The protocol: In this assay mice are tested for their ability to remember an unpleasant stimulus for a period of 24 hours. A mouse is placed in a chamber that contains a dark compartment; a strong incandescent light drives it to the dark compartment, where an electric shock is administered through metal plates on the floor. The animal is removed from the testing apparatus and tested again, 24 hours later, for the ability to remember the electric shock.
If scopolamine, an anticholinergic agent that is known to cause memory impairment, is administered before an animal's initial exposure to the test chamber, the animal re-enters the dark compartment shortly after being placed in the test chamber 24 hours later. This effect of scopolamine is blocked by an active test compound, resulting in a greater interval before re-entry into the dark compartment.
The results for an active compound are expressed as the percent of a group of animals in which the effect of scopolamine is blocked, as manifested by an increased interval between being placed in the test chamber and re-entering the dark compartment.
Results of this assay for some of the compounds of this invention and those for tacrine (reference compound) are presented in Table 2.

Structures can show the parent of a compound that is named as a salt. Where two headings read alike, the source gives them in different places.

As usually defined, the IC50 is the midpoint of a concentration-inhibition curve. Compound `CN1CC[C@@]2(C)c3cc(OC(=O)N[C@@H]4CCN(O)C4=O)ccc3N(C)[C@@H]12` [(3aS-cis)-1,2,3,3a,8,8a-Hexahydro-1,3a,8-trimethylpyrrolo[2,3-b]indol-5-yl [2-oxo-1-(hydroxy)-3R-pyrrolidinyl]carbamate, citrate salt] came in with an IC50 at acetylcholinesterase of 2310 nM. This lies in the single-digit micromolar range.

Consider `CN1CC[C@@]2(C)c3cc(OC(=O)N[C@@H]4CON(Cc5ccccc5)C4=O)ccc3N(C)[C@@H]12` [(3aS-cis)-1,2,3,3a,8,8a-Hexahydro-1,3a,8-trimethypyrrolo-[2,3-b]indol-5-yl [2-(phenylmethyl)-3-oxo-4R-isoxazolidinyl]-carbamate hemihydrate], for which the “% of Animals with Scopolamine Induced Memory Deficit Reversal” value in test [1] (mice, 0.3 mg/kg of body weight, s.c, 24 hours) was determined as 27%. Besides, on acetylcholinesterase, the IC50 was found to be 500 nM.

Take `CN1CC[C@@]2(C)c3cc(OC(=O)N[C@@H]4CCN(OCc5ccccc5)C4=O)ccc3N(C)[C@@H]12` [(3aS-cis)-1,2,3,3a,8,8a-Hexahydro-1,3a,8-trimethylpyrrolo-[2,3-b]indol-5yl [2-oxo-1-(phenylmethoxy)-3R-pyrrolidinyl]carbamate]: half-maximal inhibition against acetylcholinesterase (IC50) required 67 nM.

Turning to `Nc1c2c(nc3ccccc13)CCCC2` [Tacrine, reference compound], the “% of Animals with Scopolamine Induced Memory Deficit Reversal” value in test [1] (mouse, in vivo, 0.63 mg/kg) was found to be 13%.
